Results on 3 compounds are retold here after ChEMBL document CHEMBL5725409, “Small molecule myristate inhibitors of Bcr-abl and methods of use” (2017).

A word on the pIC50: it is the IC50 on a negative log10 scale, so that one unit is a factor of ten.

Each structure is given as a SMILES string. pIC50: −log10 of the molar value.

The experiment is described as follows: Kinase Assay: In vitro kinase assays were carried out by using recombinant murine c-abl containing SH3, SH2 and kinase domains (residues 46-531) and full length immunoprecipitated Bcr-abl. Recombinant abl was expressed in Sf9 insect cells and purified as described above. Bcr-abl immune complexes were obtained with Ab-3 anti-abl monoclonal antibody (Oncogene Science) from Ba/F3.p210 lysates as previously described. 1 μg of recombinant abl or immunoprecipitated Bcr-abl (from 3×10^6 cells) were incubated with various concentrations of test compound (0.1, 1 and 10 M) in kinase buffer (50 mM Tris-HCl pH 7.5, 10 mM MgCl2, […], 1 mM DTT, 0.015% Brij 35), 100 μM ATP and 1 μCi [γ-32P]-ATP for 30 min at 30° C. (Calbiochem buffer and protocol). The reaction was stopped by addition of Laemmli buffer and the proteins were resolved by SDS-PAGE in a 4-20% gel. The phosphoproteins were visualized by autoradiography and the autophosphorylation quantitated using a phosphoimager (STORM, Molecular Devices).

With `COc1cc(-c2cc(Nc3ccc(OC(F)(F)F)cc3)ncn2)co1`, the pIC50 is 6.03.

On to `O=C(NCCN1CCOCC1)c1cc2c(Nc3ccc(OC(F)(F)F)cc3)ncnc2s1`, for which the pIC50 was below 5.00.

With `O=C(NC(=O)c1cc2c(Nc3ccc(OC(F)(F)F)cc3)ncnc2s1)c1cccc(C(F)(F)F)c1`, the negative-log IC50 (pIC50) was 5.84.
